From patent US20160058739A1, “USE OF PIDOTIMOD TO TREAT INFLAMMATORY BOWEL DISEASE” (POLICHEM SA, priority 2013, published 2016)
Non-standard residues stand in square brackets, D forms with d. Residues, ends and D or L forms follow the SMILES beside them. pGlu = O=C1CC[C@@H](C(=O)O)N1; Thz = O=C(O)[C@@H]1CSCN1

Test system: patients with chronic diarrhoea caused by Crohn's disease or ulcerative colitis
Assay: open-label pilot trial in patients with chronic diarrhoea caused by Crohn's disease or ulcerative colitis
Type: in vivo
Excerpt: Three patients with chronic diarrhoea caused by Crohn's disease without resection, aged 44 to 63 years (2 female) and three patients with chronic diarrhoea caused by ulcerative colitis, aged 50 to 65 years (1 female) were enrolled in an open-label pilot trial to receive twice a day the composition as per the Example 4 for 12 weeks.

[1] = composition as per Example 4 twice a day for 12 weeks, 3 Crohn's disease and 3 ulcerative colitis patients

For `O=C1CC[C@@H](C(=O)N2CSC[C@H]2C(=O)O)N1` [pidotimod, (4R)-3-(5-oxo-L-prolyl)-1,3-thiazolidine-4-carboxylic acid] ([pGlu]-[Thz]-OH), which “role in inflammatory bowel disease (IBD) in controlling signs and symptoms such as chronic diarrhea” value (administered twice daily for 12 weeks, study conclusion) is on record?
The value was “beneficial role”.

What about the frequency of stools (composition as per Example 4 (oral solution, 5.10% pidotimod) twice a day for 12 weeks, 3 Crohn's disease and 3 ulcerative colitis patients) of the same molecule?
The frequency of stools was “significantly decreased”.

And the bowel transit time [1]?
Its bowel transit time is “prolonged”.

And the stool consistency [1]?
The stool consistency was “became more solid”.

And the weight of stools [1]?
Its weight of stools is “significantly decreased”.
